According to patent publication US10017527B2, “KLK4 inhibitors” (Universiteit Antwerpen, priority 2014, dated 2018):
Where two headings read alike, the source gives them in different places.

How the values were obtained:
Format in all cases: biochemical
KLK4 [1] = target: T1, KLK4 (Homo sapiens, UniProt Q9Y5K2); test: KLK4 enzymatic inhibition, fluorogenic substrate Boc-Val-Pro-Arg-AMC
T1 construct: purchased Viktor Magdolen (TUM), supplied by an academic laboratory
Description: The substrate was obtained form Bachem and the enzyme was provided by Viktor Magdolen (TUM). The reaction was monitored with an excitation wavelength of 355 nm and emission wavelength of 460 nm. The initial rate was determined between 2500000 and 4500000 mRFU/min. The reaction mixture contained 25 μM substrate and approximately 1 mU of enzyme in 145 μL of buffer in a final volume of […]. A 50 mM Tris buffer, pH 8.3, was used. From each inhibitor concentration, 5 μL was added, obtaining a final concentration from 0 to 250 μM in a total volume of 0.2 mL. Activity measurements were routinely performed in duplicate. […] IC50 values were obtained by fitting the data with the four-parameter logistics equation using Grafit 7.
[formula] where s=slope factor, v=rate, I0=inhibitor concentration, and range=the fitted uninhibited value minus the background. The equation assumes they falls with increasing x.
(§1) Inhibitor stock solutions were prepared in DMSO and stored at −20° C. Because the compounds described in this paper completely inactivate KLK4 following pseudo first-order kinetics, the IC50 value is inversely correlated with the second-order rate constant of inactivation. For a simple pseudo first-order inactivation process, the activity after incubation with inhibitor (vi) varies with the inhibitor concentration (i), as described in the following equation: vi=v0×e^−k t, where vo is the activity in absence of inhibitor, k is the second-order rate constant of inactivation, and t is the time. The inactivation rate constant was determined from the time course of inhibition.

KLK4 [2] = target: T1, KLK4; test: KLK4 inactivation kinetics from progress curves (kobs vs inhibitor concentration)
Description: as §1
The inhibitor was mixed with the substrate (250 μM final concentration), and the buffer solution with the enzyme was added at the time zero. […] The progress curves show the absorbance of aminomethylcoumarine produced as a function of time. Initially, no inhibitor is bound to the enzyme, and the tangent to the progress curve (dA/dt) is proportional to the concentration of the free enzyme. The concentration of free enzyme decreases over time due to the kinetics of inhibitor binding, as described above. Progress curves were recorded in pseudo first-order conditions ([I]0>>[E]0) and with less than 10% conversion of the substrate during the entire time course. In these conditions, dA/dt decreases exponentially with time. The progress curves were fitted with the integrated rate equation to yield a value for kobs, a pseudofirst-order rate constant At=v0[1−e^−k^obs^t]/kobs+A0 where At=absorbance at time t, A0=absorbance at time zero, and v0=uninhibited initial rate.
The apparent second-order rate constant (kapp) was calculated from the slope of the linear part of the plot of kobs versus the inhibitor concentration ([I]0). In case of competition between the inhibitor and the substrate, kapp is smaller than the “real” second order rate constant k discussed above because a certain fraction of the enzyme is present as an enzyme-substrate complex. kapp depends on the substrate concentration used in the experiment, as described by Lambeir et al. (Lambeir, Borloo et al. 1996).

KLK1 (human) = target: T2, KLK1 (human) (Homo sapiens, UniProt P06870); test: KLK1 inhibition, fluorogenic substrate H-Pro-Phe-Arg-AMC
T2 construct: purchased Prospec
Excerpt: (§2) The IC50 values For KLK1, KLK2 and KLK8 were obtained in a similar way. For plasmin, tPA, thrombin, Fxa, HNE, Plasma kallikrein Chromogenic substrates were used (absorption: 405 nm). (KLK2, KLK4, KLK8 were supplied by Viktor Magdolen TUMunich (TUM)).

KLK8 (human) = target: T3, KLK8 (human) (Homo sapiens, UniProt O60259); test: KLK8 inhibition, fluorogenic substrate Boc-Val-Pro-Arg-AMC
T3 construct: purchased Viktor Magdolen, TUMunich (TUM), supplied by an academic laboratory
T3 sequence (O60259 33-260): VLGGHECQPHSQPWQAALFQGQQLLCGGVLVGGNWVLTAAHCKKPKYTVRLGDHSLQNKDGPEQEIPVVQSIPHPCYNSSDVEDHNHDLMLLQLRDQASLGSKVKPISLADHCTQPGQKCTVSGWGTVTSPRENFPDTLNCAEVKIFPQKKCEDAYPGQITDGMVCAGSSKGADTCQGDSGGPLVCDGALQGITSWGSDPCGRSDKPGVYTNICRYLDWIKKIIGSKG
Excerpt: as §2

uPA (recombinant) = target: T4, uPA (recombinant) (Homo sapiens, UniProt P00749); test: uPA inhibition, chromogenic substrate Biophen CS-61(44)
T4 construct: purchased Nodia

tPA (recombinant) = target: T5, tPA (recombinant) (Homo sapiens, UniProt P00750); test: tPA inhibition, chromogenic substrate Biophen CS-05(88)
T5 construct: purchased Nodia
Excerpt: as §2

Thrombine (human plasma) = target: T6, Thrombine (human plasma) (Homo sapiens, UniProt P00734); test: Thrombin inhibition, chromogenic substrate Biophen CS-21(66)
T6 construct: purchased Sigma-Aldrich; host or cells: human plasma

Plasmine (human plasma) = target: T7, Plasmine (human plasma) (Homo sapiens, UniProt P00747); test: Plasmin inhibition, chromogenic substrate Biophen CS-21(66)
T7 construct: purchased Sigma-Aldrich; host or cells: human plasma
Excerpt: as §2

FXa = target: T8, FXa (Homo sapiens, UniProt P00742); test: FXa inhibition, chromogenic substrate Biophen CS-11(32)
T8 construct: purchased Nodia
Excerpt: as §2

PlasmaKLK (human plasma) = target: T9, PlasmaKLK (human plasma) (Homo sapiens, UniProt P03952); test: Plasma kallikrein inhibition, chromogenic substrate Biophen CS-31(02)
T9 construct: purchased Sigma-Aldrich; host or cells: human plasma
Excerpt: as §2

[3] = target: T10, Neurtophil Elastase(human) (Homo sapiens, UniProt P08246); test: Neutrophil elastase inhibition, chromogenic substrate MeOSuc-Ala-Ala-Pro-Val-pNA
T10 construct: purchased Enzo-life sciences
T10 sequence (P08246 30-267): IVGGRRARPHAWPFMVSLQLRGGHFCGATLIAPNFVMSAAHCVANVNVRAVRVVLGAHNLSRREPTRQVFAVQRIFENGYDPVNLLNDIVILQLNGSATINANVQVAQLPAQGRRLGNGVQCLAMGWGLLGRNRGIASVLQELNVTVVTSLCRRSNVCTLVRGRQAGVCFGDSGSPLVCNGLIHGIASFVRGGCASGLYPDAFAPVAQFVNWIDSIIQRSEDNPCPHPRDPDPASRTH
Excerpt: as §2

AcHE = AcHE (Homo sapiens, UniProt P22303); test: AcHE inhibition
Matriptase = target: T11, Matriptase (Homo sapiens, UniProt Q9Y5Y6); test: Matriptase inhibition
T11 sequence (Q9Y5Y6 1-855): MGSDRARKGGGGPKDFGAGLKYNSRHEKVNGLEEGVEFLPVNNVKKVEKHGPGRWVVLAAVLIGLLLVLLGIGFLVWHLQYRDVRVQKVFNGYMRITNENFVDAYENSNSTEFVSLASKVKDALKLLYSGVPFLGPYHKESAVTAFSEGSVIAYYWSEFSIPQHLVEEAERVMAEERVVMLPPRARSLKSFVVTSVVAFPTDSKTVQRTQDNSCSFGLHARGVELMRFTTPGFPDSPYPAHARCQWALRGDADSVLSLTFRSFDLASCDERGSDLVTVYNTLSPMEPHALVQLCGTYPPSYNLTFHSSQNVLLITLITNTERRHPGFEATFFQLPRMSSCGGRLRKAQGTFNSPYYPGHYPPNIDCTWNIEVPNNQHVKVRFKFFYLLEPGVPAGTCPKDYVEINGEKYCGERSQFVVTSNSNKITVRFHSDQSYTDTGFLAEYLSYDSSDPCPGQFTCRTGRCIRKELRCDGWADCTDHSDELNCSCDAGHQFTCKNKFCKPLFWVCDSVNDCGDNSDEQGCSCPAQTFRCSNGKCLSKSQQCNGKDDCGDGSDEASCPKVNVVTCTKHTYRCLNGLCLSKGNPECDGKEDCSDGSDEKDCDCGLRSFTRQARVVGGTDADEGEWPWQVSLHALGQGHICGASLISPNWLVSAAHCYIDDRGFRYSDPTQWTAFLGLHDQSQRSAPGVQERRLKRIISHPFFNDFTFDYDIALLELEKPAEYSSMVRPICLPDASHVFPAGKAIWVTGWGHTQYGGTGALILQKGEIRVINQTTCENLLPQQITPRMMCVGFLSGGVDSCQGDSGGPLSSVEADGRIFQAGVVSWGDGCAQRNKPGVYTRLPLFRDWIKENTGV

KLK2 (human) = target: T12, KLK2 (human) (Homo sapiens, UniProt P20151); test: KLK2 inhibition, fluorogenic substrate H-Pro-Phe-Arg-AMC
T12 construct: purchased Viktor Magdolen, TUMunich (TUM), supplied by an academic laboratory
Excerpt: as §2

[4] = 15 min pre-incubation at 37° C., Tris buffer pH 8.3, read-out: IC50 KLK4
[5] = Tris buffer pH 8.8, read-out: IC50 uPA
[6] = Tris buffer pH 8.3, read-out: IC50 tPA
[7] = Thrombin, Tris buffer pH 8.3, read-out: IC50 THR
[8] = Plasmin, Tris buffer pH 7.4, read-out: IC50 PLM
[9] = Tris buffer pH 8.3, read-out: IC50 FXa
[10] = Plasma KLK, Tris buffer pH 7.8, read-out: IC50 pKLK
[11] = Tris buffer pH 7.8, read-out: IC50 HNE

Chain of AcHE (P22303 32-614): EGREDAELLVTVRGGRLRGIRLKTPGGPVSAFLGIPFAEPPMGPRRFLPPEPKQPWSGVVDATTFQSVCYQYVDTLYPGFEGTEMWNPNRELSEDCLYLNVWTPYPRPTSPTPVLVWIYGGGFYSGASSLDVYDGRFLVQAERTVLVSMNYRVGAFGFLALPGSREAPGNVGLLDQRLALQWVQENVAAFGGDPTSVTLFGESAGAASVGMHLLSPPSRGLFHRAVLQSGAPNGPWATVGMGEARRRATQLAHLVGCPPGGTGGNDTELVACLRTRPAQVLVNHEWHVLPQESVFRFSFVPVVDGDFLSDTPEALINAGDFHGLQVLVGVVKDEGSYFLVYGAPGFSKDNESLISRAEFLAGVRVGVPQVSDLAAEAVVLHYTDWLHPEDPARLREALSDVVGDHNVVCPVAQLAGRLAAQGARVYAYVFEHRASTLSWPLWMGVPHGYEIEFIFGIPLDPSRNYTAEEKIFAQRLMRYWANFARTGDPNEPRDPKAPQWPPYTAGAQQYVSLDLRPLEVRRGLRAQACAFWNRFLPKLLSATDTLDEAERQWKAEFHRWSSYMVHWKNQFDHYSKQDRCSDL
T2 sequence (P06870 25-262): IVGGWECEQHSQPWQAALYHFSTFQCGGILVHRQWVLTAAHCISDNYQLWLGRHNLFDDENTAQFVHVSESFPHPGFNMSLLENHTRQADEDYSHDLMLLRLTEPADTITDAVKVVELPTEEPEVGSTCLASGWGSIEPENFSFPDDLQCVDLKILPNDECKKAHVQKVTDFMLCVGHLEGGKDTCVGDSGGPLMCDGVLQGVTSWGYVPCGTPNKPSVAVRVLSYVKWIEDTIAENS
T5 sequence (P00750 36-562, species assumed): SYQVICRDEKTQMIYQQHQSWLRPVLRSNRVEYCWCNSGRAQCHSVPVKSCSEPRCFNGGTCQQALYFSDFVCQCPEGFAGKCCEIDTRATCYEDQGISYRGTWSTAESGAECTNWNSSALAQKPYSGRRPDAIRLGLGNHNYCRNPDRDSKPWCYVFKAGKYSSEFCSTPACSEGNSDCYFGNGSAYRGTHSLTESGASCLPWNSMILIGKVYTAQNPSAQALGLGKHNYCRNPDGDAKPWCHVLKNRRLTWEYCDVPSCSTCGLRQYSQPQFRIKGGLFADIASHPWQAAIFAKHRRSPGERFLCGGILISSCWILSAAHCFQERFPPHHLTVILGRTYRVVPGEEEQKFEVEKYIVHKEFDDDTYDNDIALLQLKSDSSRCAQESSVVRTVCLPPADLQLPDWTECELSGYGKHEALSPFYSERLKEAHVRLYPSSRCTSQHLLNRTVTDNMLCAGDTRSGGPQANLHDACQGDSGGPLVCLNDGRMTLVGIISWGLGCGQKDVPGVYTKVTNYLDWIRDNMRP
T9 sequence (P03952 391-638 limits assumed): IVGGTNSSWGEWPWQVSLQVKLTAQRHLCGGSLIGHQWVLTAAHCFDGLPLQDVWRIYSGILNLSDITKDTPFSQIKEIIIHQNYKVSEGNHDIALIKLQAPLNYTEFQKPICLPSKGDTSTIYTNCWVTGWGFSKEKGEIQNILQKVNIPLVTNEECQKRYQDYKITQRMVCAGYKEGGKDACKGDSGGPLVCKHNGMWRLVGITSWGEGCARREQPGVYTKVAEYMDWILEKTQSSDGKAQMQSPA
T9 sequence (P03952 20-390 partner limits assumed): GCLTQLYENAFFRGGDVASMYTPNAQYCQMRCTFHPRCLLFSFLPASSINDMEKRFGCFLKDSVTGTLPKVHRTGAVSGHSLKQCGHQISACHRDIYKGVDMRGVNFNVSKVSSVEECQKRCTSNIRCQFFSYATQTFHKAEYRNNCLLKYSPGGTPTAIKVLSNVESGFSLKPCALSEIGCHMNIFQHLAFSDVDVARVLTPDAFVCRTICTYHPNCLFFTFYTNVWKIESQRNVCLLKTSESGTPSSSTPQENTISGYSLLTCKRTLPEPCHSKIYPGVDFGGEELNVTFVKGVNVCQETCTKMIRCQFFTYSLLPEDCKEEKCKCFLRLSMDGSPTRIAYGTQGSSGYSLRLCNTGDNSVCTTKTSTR
T8 sequence (P00742 235-488 limits assumed): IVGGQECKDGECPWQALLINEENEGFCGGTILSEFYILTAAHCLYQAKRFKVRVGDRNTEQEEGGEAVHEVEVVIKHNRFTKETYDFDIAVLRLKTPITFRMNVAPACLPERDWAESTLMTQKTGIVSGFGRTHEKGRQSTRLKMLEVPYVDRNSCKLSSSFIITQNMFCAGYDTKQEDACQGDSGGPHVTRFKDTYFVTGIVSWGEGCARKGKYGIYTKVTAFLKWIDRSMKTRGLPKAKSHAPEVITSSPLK
T8 sequence (P00742 41-179 partner limits assumed): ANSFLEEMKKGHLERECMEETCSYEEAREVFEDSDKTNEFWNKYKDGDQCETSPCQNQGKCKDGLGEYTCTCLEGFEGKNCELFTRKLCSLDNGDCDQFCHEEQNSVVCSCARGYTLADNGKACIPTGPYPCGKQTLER
T7 sequence (P00747 581-810 limits assumed): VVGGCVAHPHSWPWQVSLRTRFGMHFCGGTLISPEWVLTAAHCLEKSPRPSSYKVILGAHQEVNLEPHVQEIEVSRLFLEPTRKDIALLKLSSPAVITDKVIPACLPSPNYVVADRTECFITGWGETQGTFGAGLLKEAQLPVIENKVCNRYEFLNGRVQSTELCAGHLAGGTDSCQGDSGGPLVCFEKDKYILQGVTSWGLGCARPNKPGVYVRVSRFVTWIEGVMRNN
T7 sequence (P00747 98-580 partner limits assumed): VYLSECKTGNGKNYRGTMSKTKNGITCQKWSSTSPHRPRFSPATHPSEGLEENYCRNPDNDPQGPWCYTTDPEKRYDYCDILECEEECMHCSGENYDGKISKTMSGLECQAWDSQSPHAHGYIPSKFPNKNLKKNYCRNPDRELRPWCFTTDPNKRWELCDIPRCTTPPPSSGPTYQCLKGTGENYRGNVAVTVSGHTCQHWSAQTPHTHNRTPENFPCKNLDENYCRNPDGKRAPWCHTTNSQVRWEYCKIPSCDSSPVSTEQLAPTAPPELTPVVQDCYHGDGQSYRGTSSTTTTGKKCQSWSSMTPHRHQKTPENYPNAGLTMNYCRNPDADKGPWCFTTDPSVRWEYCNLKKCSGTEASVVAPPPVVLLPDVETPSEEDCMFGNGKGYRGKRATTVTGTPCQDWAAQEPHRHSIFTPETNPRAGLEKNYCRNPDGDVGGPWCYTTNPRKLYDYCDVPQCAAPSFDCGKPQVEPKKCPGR
T1 sequence (Q9Y5K2 31-254): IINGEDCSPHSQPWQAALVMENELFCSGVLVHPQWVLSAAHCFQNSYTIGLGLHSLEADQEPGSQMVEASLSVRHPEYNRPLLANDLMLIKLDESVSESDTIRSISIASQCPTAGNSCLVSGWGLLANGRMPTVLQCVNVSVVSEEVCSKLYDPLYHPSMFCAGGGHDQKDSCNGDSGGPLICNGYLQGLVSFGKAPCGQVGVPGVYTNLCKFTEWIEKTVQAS
T12 sequence (P20151 25-261): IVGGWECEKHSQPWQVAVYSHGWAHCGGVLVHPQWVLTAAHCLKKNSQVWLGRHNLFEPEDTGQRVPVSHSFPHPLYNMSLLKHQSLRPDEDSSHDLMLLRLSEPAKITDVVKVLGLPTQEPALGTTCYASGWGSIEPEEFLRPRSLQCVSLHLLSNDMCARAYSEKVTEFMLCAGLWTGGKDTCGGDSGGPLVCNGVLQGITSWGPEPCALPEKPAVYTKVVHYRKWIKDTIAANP

Row | Molecule | IC50 (KLK4 [1]; [4]) [µM] | IC50 (uPA (recombinant); [5]) [µM] | IC50 (tPA (recombinant); [6]) [µM] | IC50 (Thrombine (human plasma); [7]) [µM] | IC50 (Plasmine (human plasma); [8]) [µM] | IC50 (FXa; [9]) [µM] | IC50 (PlasmaKLK (human plasma); [10]) [µM] | IC50 [3, 11] [µM] | IC50 (KLK4 [1]) [µM] | IC50 (KLK1 (human)) [µM] | IC50 (KLK8 (human)) [µM] | IC50 (uPA (recombinant)) [µM] | IC50 (tPA (recombinant)) [µM] | IC50 (Thrombine (human plasma)) [µM] | IC50 (Plasmine (human plasma)) [µM] | IC50 (FXa) [µM] | IC50 (PlasmaKLK (human plasma)) [µM] | IC50 [3] [µM] | IC50 (AcHE) [µM] | IC50 (Matriptase) [µM] | also measured
1 | 2-((1E,3E,5Z)-5-(1-(6-((2-(4-(1-(diphenoxyphosphoryl)-1-(4-guanidinophenyl)-3-oxo-4,7,10-trioxa-2-azaundecan-11-yl)-1H-1,2,3-triazol-1-yl)ethyl)amino)-6-oxohexyl)-3,3-dimethylindolin-2-ylidene)penta-1,3-dien-1-yl)-1,3,3-trimethyl-3H-indol-1-ium [Compound 134] | 0.1 to 1 | 2.5 to 10 | > 250 | 10 to 250 | 10 to 250 | 2.5 to 10 | 10 to 250 | 10 to 250 |  |  |  |  |  |  |  |  |  |  |  |  | kapp KLK4 (KLK4 [2]; apparent second-order rate constant, substrate 250 μM): 2240 M⁻¹ s⁻¹; Irreversible (KLK4) (KLK4 [2]; irreversible binding to KLK4, Yes/No): Yes/; IC50 (KLK1 (human); Tris buffer pH 7.8, read-out: IC50 KLK1): 2.5 to 10 µM; IC50 (KLK8 (human); Tris buffer pH 8, read-out: IC50 KLK8): 2.5 to 10 µM; IC50 (AcHE; read-out: IC50 AcHE): 10 to 250 µM; IC50 (Matriptase; Matriptase, read-out: IC50 MAT): 2.5 to 10 µM
2 | COCCOC(=O)NC(c1ccc(NC(=N)N)cc1)P(=O)(Oc1ccccc1)Oc1ccccc1 (stereo not drawn) [Compound 29, 2-methoxyethyl ((diphenoxyphosphoryl)(4-guanidinophenyl)methyl)carbamate 2,2,2-trifluoroacetate] |  |  |  |  |  |  |  |  | 0.1 to 1 | 10 to 250 | 10 to 250 | 10 to 250 | > 250 | > 250 | 10 to 250 | > 250 | > 250 | 2.5 to 10 | 10 to 250 | 2.5 to 10 | IC50 (KLK2 (human)): 0.1 to 1 µM
3 | CCCCCC(=O)NCCOC(=O)NC(c1ccc(NC(=N)N)cc1)P(=O)(Oc1ccccc1)Oc1ccccc1 (stereo not drawn) [Compound 31, 2-hexanamidoethyl ((diphenoxyphosphoryl)(4-guanidinophenyl)methyl) carbamate 2,2,2-trifluoroacetaat] |  |  |  |  |  |  |  |  | 0.1 to 1 | 10 to 250 | 10 to 250 | 10 to 250 | > 250 | > 250 | > 250 | 10 to 250 | 10 to 250 | 10 to 250 | 10 to 250 | 2.5 to 10 | 
4 | N=C(N)Nc1ccc(C(NC(=O)OCCOCCOCc2cn(CCOCCOCCOCCNC(=O)CN3CCN(CC(=O)O)CCN(CC(=O)O)CCN(CC(=O)O)CC3)nn2)P(=O)(Oc2ccccc2)Oc2ccccc2)cc1 (stereo not drawn) [Compound 83, 2,2′,2″-(10-(14-(4-(1-(diphenoxyphosphoryl)-1-(4-guanidinophenyl)-3-oxo-4,7,10-trioxa-2-azaundecan-11-yl)-1H-1,2,3-triazol-1-yl)-2-oxo-6,9,12-trioxa-3-azatetradecyl)-1,4,7,10-tetraazacyclododecane-1,4,7-triyl)triacetic acid] |  |  |  |  |  |  |  |  | < 0.1 | 2.5 to 10 |  | 2.5 to 10 | 2.5 to 10 | 10 to 250 | 10 to 250 | 10 to 250 | 10 to 250 |  | 10 to 250 | 2.5 to 10 | 
5 | CCCCCCOC(=O)NC(c1ccc(NC(=N)N)cc1)P(=O)(Oc1ccccc1)Oc1ccccc1 (stereo not drawn) [Compound 92, Hexyl ((diphenoxyphosphoryl)(4-guanidinophenyl)methyl)carbamate] |  |  |  |  |  |  |  |  | < 0.1 | 1 to 2.5 | 2.5 to 10 | 2.5 to 10 | 2.5 to 10 |  | 2.5 to 10 | 2.5 to 10 | 2.5 to 10 | 2.5 to 10 | 10 to 250 |  | IC50 (KLK2 (human)): 0.1 to 1 µM
6 | CCN(CC)c1ccc2c(-c3ccccc3C(=O)N3CCN(C(=O)CCCCCCCn4cc(COCCOCCOC(=O)NC(c5ccc(NC(=N)N)cc5)P(=O)(Oc5ccccc5)Oc5ccccc5)nn4)CC3)c3ccc(=[N+](CC)CC)cc-3oc2c1 (stereo not drawn) [Compound 133, N-(6-(diethylamino)-9-(2-(4-(8-(4-(1-(diphenoxyphosphoryl)-1-(4-guanidinophenyl)-3-oxo-4,7,10-trioxa-2-azaundecan-11-yl)-1H-1,2,3-triazol-1-yl)octanoyl)piperazine-1-carbonyl)phenyl)-3H-xanthen-3-ylidene)-N-ethylethanaminium] | < 0.1 | 2.5 to 10 | > 250 | 10 to 250 | 10 to 250 | 2.5 to 10 | 10 to 250 | 10 to 250 |  |  |  |  |  |  |  |  |  |  |  |  | IC50 (Matriptase; Matriptase, read-out: IC50 MAT): 2.5 to 10 µM
